By pIC50 is commonly meant the negative decadic logarithm of the IC50, by convention in mol/L.

Experiment in all cases: biochemical
One test deals with DRB1*0802 (Homo sapiens, UniProt P01903+P01911, A100R/A103L/A169T/F76Y/H45Y/I96F/K41T/L162R/M171V/P40S/Q125H/Q178H/Q39Y/Q99D/R218S/R42G/S66Y/V115G/W38E). The class given is binding.
For the next test, the target named is DRB1*0901 (Homo sapiens, UniProt P01903+P01911, A100R/A103E/D57H/D86V/F55Y/F60I/F76Y/I96F/K127E/L162R/M171V/P40D/Q125H/Q99R/R33Q/R42F/S133A/S66N/T210M/V115G/W38K/Y107V/Y59G/Y89S). The class given is binding.
For the next test, the target named is DRB1*1201 (Homo sapiens, UniProt P01903+P01911, A100R/A169T/D57E/D86V/F55L/H45Y/K41T/L162R/M171V/P40S/Q125H/Q178H/Q39Y/Q99D/R42G/S66L/T262R/V114A/V67L/W38E/Y59H/Y61H/Y89S). Type of test: binding.
In the next test the target is DRB1*1501 (Homo sapiens, UniProt P01903+P01911). The class given is binding.
Another test deals with DRB1*1101 (Homo sapiens, UniProt P01903+P01911, A100R/A169T/A87E/I96F/K41T/L162R/M171V/P40S/Q125H/Q178H/Q39Y/Q99D/R42S/S66Y/T262R/V115G/W38E).
Sequence of DRB1*1101 (P01903 26-254 limits assumed, other chains not shown): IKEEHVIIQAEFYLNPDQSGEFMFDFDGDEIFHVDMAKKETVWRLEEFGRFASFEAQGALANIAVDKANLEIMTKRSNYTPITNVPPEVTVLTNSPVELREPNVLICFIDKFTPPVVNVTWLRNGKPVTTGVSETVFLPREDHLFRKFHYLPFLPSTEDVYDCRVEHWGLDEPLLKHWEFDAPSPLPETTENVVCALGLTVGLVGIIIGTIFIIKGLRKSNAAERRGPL
Another test deals with DRB5*0101 (Homo sapiens, UniProt P01903+Q30154). The following applies: Binding affinity DRB5 *0101.
For the next test, the target named is DR7 (DRB1*0701) (Homo sapiens, UniProt P01903+P01911, A100R/A102G/A103Q/D57E/D86V/E43K/F76Y/K127E/L162R/M171V/P40G/Q125H/Q99D/R33Q/R42Y/R54Q/S133A/S66F/T210M/V115G/Y107V/Y59L/Y89S). The class given is binding.
The target of the next test is DRB1*1302 (Homo sapiens, UniProt P01903+P01911, A100E/A169T/K41T/L162R/M171V/P40S/Q125H/Q178H/Q39Y/Q99D/R42S/S66N/T262R/V115G/W38E/Y61H). The class given is binding.
Sequence of DRB1*1302 (P01903 26-254 limits assumed, other chains not shown): as above
Another test addresses DR1 (DRB1*0101) (Homo sapiens, UniProt P01903+P01911, A100R/D57E/F55L/F60I/F76Y/I96L/L162R/M171V/P40L/Q125E/R42F/V115G/Y59C). The class given is binding.
For the next test, the target named is DR4w4 (DRB1*0401) (Homo sapiens, UniProt P01903+P01911, A100K/A169T/F76Y/I96L/K127E/L162R/M171V/N62H/P40V/Q125Y/R42H/S133A/S149N/S66Y/V115G/V209L/W38E). Type of test: binding.
For another test, the target named is DRB1*0405 (Homo sapiens, UniProt P01903+P01911, A100R/A169T/D86S/F76Y/I96L/K127E/L162R/M171V/N62H/P40V/Q125Y/R42H/S133A/S149N/S66Y/V115G/V209L/W38E). The class given is binding.
Another test has as its target DRB4*0101 (Homo sapiens, UniProt P01903+P13762, G164S). Type of test: binding.

pIC50: −log10 of the molar value. No end group written: not given here.

Take `CC[C@H](C)[C@H](NC(=O)[C@@H](NC(=O)[C@H](Cc1c[nH]cn1)NC(=O)[C@@H](N)CC(C)C)C(C)C)C(=O)N[C@@H](CO)C(=O)N[C@@H](CC(N)=O)C(=O)N[C@@H](CC(=O)O)C(=O)N[C@H](C(=O)N[C@@H](CS)C(=O)N[C@@H](C)C(=O)N[C@@H](CCC(N)=O)C(=O)N[C@H](C(=O)N[C@@H](Cc1c[nH]cn1)C(=O)N1CCC[C@H]1C(=O)N[C@@H](CCC(N)=O)C(=O)O)C(C)C)C(C)C` [Peptide 68.0077]: the pIC50 at DRB1*0802, against DRB1*0901, against DRB1*1201, on DRB1*1501, at DRB1*1101 (Binding affinity DRB1 *1101) and at DRB5*0101 was < 4.70 in each case.
As to `CC[C@H](C)[C@H](NC(=O)[C@H](CO)NC(=O)[C@H](CO)NC(=O)[C@H](CC(=O)O)NC(=O)[C@H](C)NC(=O)[C@H](CC(N)=O)NC(=O)[C@@H](NC(=O)[C@H](Cc1ccc(O)cc1)NC(=O)[C@H](C)NC(=O)[C@@H](NC(=O)CNC(=O)[C@H](CCCNC(=N)N)NC(=O)[C@@H](N)CCC(=O)O)C(C)C)[C@@H](C)CC)C(=O)N[C@@H](CCC(=O)O)C(=O)NCC(=O)O` [Peptide 68.0109], the pIC50 at DR7 (DRB1*0701), on DRB1*0802, against DRB1*0901, against DRB1*1201, against DRB1*1501 and at DRB1*1101 (Binding affinity DRB1 *1101) was < 4.70 throughout.
For the compound `CSCC[C@H](NC(=O)[C@H](CCC(=O)O)NC(=O)[C@H](CCC(N)=O)NC(=O)[C@@H]1CCCN1)C(=O)N[C@@H](CCCCN)C(=O)N[C@H](C(=O)N[C@@H](Cc1ccc(O)cc1)C(=O)N[C@@H](CO)C(=O)N[C@H](C(=O)N[C@@H](CO)C(=O)N[C@@H](Cc1ccccc1)C(=O)N[C@@H](CC(=O)O)C(=O)N[C@@H](CO)C(=O)N[C@@H](CC(C)C)C(=O)N[C@@H](Cc1ccccc1)C(=O)O)C(C)C)[C@@H](C)O` [Peptide 68.0127], the negative-log IC50 (pIC50) against DRB1*0802 is < 4.70; against DRB1*1201, 5.27; against DRB1*1302, < 4.70; at DRB1*1101 (Binding affinity DRB1 *1101), < 4.70.
As for `CC(C)C[C@H](NC(=O)[C@H](CCC(N)=O)NC(=O)[C@H](CC(=O)O)NC(=O)[C@H](CCC(=O)O)NC(=O)[C@H](CO)NC(=O)[C@H](CC(C)C)NC(=O)[C@@H]1CCCN1C(=O)[C@@H](NC(=O)[C@@H](N)[C@@H](C)O)C(C)C)C(=O)N[C@@H](CC(C)C)C(=O)N[C@@H](Cc1ccc(O)cc1)C(=O)N[C@@H](CC(C)C)C(=O)N1CCC[C@H]1C(=O)N[C@@H](Cc1ccccc1)C(=O)N[C@@H](CCCNC(=N)N)C(=O)O` [Peptide 68.0147], the pIC50 against DRB1*0802 is < 4.70; against DRB1*0901, < 4.70; against DRB1*1201 it was 5.01; against DRB1*1501 it was < 4.70; on DRB1*1101 (Binding affinity DRB1 *1101), < 4.70; on DRB5*0101 it was < 4.70.
Consider `CC[C@H](C)[C@H](NC(=O)[C@H](CCCCN)NC(=O)[C@H](CCSC)NC(=O)[C@H](CC(=O)O)NC(=O)[C@H](CCCNC(=N)N)NC(=O)[C@H](CCC(=O)O)NC(=O)[C@H](CC(C)C)NC(=O)[C@H](CCCCN)NC(=O)[C@H](Cc1ccccc1)NC(=O)[C@@H](N)Cc1ccccc1)C(=O)N[C@@H](CC(N)=O)C(=O)N[C@@H](CS)C(=O)N[C@@H](CO)C(=O)NCC(=O)N[C@@H](CCCCN)C(=O)O` [Peptide 68.0168], for which the pIC50 on DR7 (DRB1*0701) is < 4.70; against DRB1*0901, < 4.70; on DRB1*1201, 5.16; against DRB1*1501, < 4.70.
For EDFFKLERDMKINCS [Peptide 68.0167], the pIC50 on DRB1*0901, against DRB1*1201 and against DRB1*1501 was < 4.70 each time.
On to ELQMALKGLAQSKYN [Peptide 90.0005], for which the pIC50 at DR1 (DRB1*0101) was 7.09; against DR4w4 (DRB1*0401) it was 5.65; on DR7 (DRB1*0701), < 4.70; against DRB1*0405, 5.23; against DRB1*0802 it was 6.90; against DRB1*0901, 6.46. Besides, the pIC50 at DRB1*1201 is 7.39; against DRB1*1302, 5.00; on DRB1*1501, < 4.70; at DRB1*1101 (Binding affinity DRB1 *1101), 7.19; on DRB5*0101 it was 6.32.
ESVFSSDEISFAGIV [Peptide 90.0195]: the pIC50 on DR1 (DRB1*0101) is 5.62; at DR4w4 (DRB1*0401), 7.48; against DR7 (DRB1*0701), 6.22; at DRB1*0405 it was 5.07; against DRB1*0802, < 4.70; at DRB1*0901, 6.17. Further, the pIC50 is < 4.70 on DRB1*1201; 6.63 against DRB1*1302; 5.70 at DRB1*1501; < 4.70 at DRB1*1101 (Binding affinity DRB1 *1101); < 4.70 at DRB5*0101.
As to ITFLGALKSFLKGTP [Peptide 89.0034], the pIC50 on DR1 (DRB1*0101) is 7.74; against DR7 (DRB1*0701) it was 5.53; against DRB1*0901, 5.12; against DRB1*1201, 7.36; on DRB1*1302, < 4.70; against DRB1*1501 it was 6.89. For the same compound, the pIC50 is 5.82 against DRB4*0101 and 7.72 on DRB5*0101.
As to IWEVHMENESIYCPD [Peptide 90.0237], the negative-log IC50 (pIC50) is 5.75 against DR1 (DRB1*0101); 5.47 against DR4w4 (DRB1*0401); < 4.70 against DR7 (DRB1*0701); < 4.70 against DRB1*0405; < 4.70 against DRB1*0802; 5.26 on DRB1*0901. The pIC50 against DRB1*1201 was < 4.70; at DRB1*1302, 5.71; on DRB1*1501, < 4.70; at DRB1*1101 (Binding affinity DRB1 *1101), < 4.70; on DRB5*0101, < 4.70.
For the compound IYIIEEDTCTMVTGK [Peptide 90.0204], the pIC50 is 5.65 against DR1 (DRB1*0101); 6.82 at DR4w4 (DRB1*0401); 5.09 at DR7 (DRB1*0701); 4.73 against DRB1*0405; < 4.70 against DRB1*0802; < 4.70 against DRB1*0901. In addition, the negative logarithm of the IC50 (pIC50) was 4.78 against DRB1*1201; 6.00 on DRB1*1302; 4.73 on DRB1*1501; 4.92 on DRB1*1101 (Binding affinity DRB1 *1101); < 4.70 on DRB5*0101.
For the compound LTELYFEKGEYFVEM [Peptide 68.0153], the pIC50 is < 4.70 against DRB1*0901, 4.90 against DRB1*1201, < 4.70 at DRB1*1501 and < 4.70 at DRB1*1101 (Binding affinity DRB1 *1101).
For PEWIDRLTVLQHSFN [Peptide 89.0070], the pIC50 was 5.58 against DR1 (DRB1*0101); < 4.70 against DR7 (DRB1*0701); 7.10 against DRB1*0405; 5.38 against DRB1*0901; 6.69 on DRB1*1201; 6.01 against DRB1*1501. Further, the negative logarithm of the IC50 (pIC50) was 7.89 against DRB4*0101, 5.58 at DRB1*1101 (Binding affinity DRB1 *1101) and < 4.70 at DRB5*0101.
As for PRWLCAGALVLAGGF [Peptide 68.0083], the pIC50 is < 4.70 against DRB1*0802; 5.34 on DRB1*1201; < 4.70 against DRB1*1302; < 4.70 on DRB1*1101 (Binding affinity DRB1 *1101); < 4.70 at DRB5*0101.
Take SEIYIIEETTCTLVA [Peptide 90.0250]: the pIC50 against DR7 (DRB1*0701) was < 4.70; against DRB1*0405, 5.09; against DRB1*0802, < 4.70; on DRB1*0901 it was < 4.70; against DRB1*1201, < 4.70; against DRB1*1302, 6.40. Moreover, the pIC50 against DRB4*0101 is 6.64; on DRB1*1101 (Binding affinity DRB1 *1101) it was < 4.70; at DRB5*0101, < 4.70.
On to SLSLGFLFLLFFWLD [Peptide 68.0022], for which the negative logarithm of the IC50 (pIC50) at DR7 (DRB1*0701) was < 4.70; on DRB1*0802, < 4.70; against DRB1*0901 it was < 4.70; against DRB1*1201 it was 5.91; at DRB4*0101 it was < 4.70; against DRB1*1101 ([…]) it was < 4.70. Further, the pIC50 at DRB5*0101 is < 4.70.
As for VSFLSALKLFLKGVP [Peptide 89.0053], the pIC50 on DR1 (DRB1*0101) was 7.64; on DR4w4 (DRB1*0401) it was 5.80; against DRB1*0802, 6.54; at DRB1*0901 it was 5.67; on DRB1*1201, 7.09; against DRB1*1501, 5.84. The pIC50 was 7.64 against DRB4*0101 and 7.19 at DRB1*1101 (Binding affinity DRB1 *1101).

The record behind these values is patent US9340577B2, “HLA binding motifs and peptides and their uses” (priority 1992, dated 2016).
